Source: patent publication US8614236B2 (University of Washington, priority 2006, dated 2013)
“And” between values parts separate entries of the source, which are not always exact repeats. Identical values can stand only once.

Columns and labels:
[1] = test system: Beagle dogs; test: Dog study: arterial blood gases, ventilation and acid-base status in normoxia and hypoxia; assay type: in vivo
From the text: The dogs were kept under highly standardized conditions and received a standardized diet five days before the experiments. […] To permit spontaneous breathing through a low resistance circuit, a face mask was attached, which enclosed the dog's snout in a leak proof fashion. This custom made mask is equipped with a 2.5 cm ID connector to connect it to a ventilator set to CPAP mode (3 4 cmH20) (Servo900C; Siemens-Elema, Erlangen/Germany).
Six dogs were studied in five different protocols in randomized order:
5) Ethoxzolamide (Sigma-Aldrich, Steinheim/Germany) intravenously: Bolus ethoxzolamide (1 mg/kg), followed by a continuous infusion of 1 mg·kg^−1·h^−1.
The hemodynamic measurements (arterial blood pressure, heart rate, central venous pressure, pulmonary artery pressure, pulmonary capillary wedge pressure), minute ventilation, renal function data, time points for blood samples for blood gases, actual bicarbonate, base excess, plasma electrolytes and hormones, measurements of plasma and urinary values were according to former studies.
Values are given as means±SEM (n=6). For intra-group comparisons a general linear model of analysis of variance (GLM-ANOVA) for repeated measures was applied (NCSS97/PASS 2000, Saugus/MA, USA). Post-hoc testing of means was performed with Student's t-test. Level of significance for error of first order was adjusted according to Holm's procedure. Statistical significance was assumed at p<0.05.

[2] = test system: PASMCs; test: Intracellular pH (pHi) in PASMCs (BCECF-AM); assay type: cell-based, rat; conditions: for basal pHi, Baseline: before the compound
Procedure: (§1) The method for obtaining single PASMCs has been described previously in Shimoda L. A., et al., Am J Physiol 274: 842-853 (1998), which is hereby incorporated by reference in its entirety. Intrapulmonary arteries (200-600 μm o.d.) were isolated from male Wistar rats (250-350 g) and cleaned of connective tissue. After the lumen was gently rubbed with a cotton swab to remove the endothelial cells, the arteries were allowed to recover for 30 minutes in cold (4° C.) HBSS containing (in mM): 130 NaCl, 5 KCl, 1.2 MgCl2, 1.5 CaCl2, 10 N-[2-hydroxyethyl]piperazine-N′-[2-ethanesulfonic acid] (HEPES) and 10 glucose, with pH adjusted to 7.2 with 5 M NaOH, followed by 20 minutes in reduced-Ca^2+ (20 μM CaCl2) HBSS at room temperature. The tissue was enzymatically digested in reduced-Ca^2+ HBSS containing collagenase (type I; 1750 U/ml), papain (9.5 U/ml), bovine serum albumin (2 mg/ml) and dithiothreitol (1 mM) at 37° C. for 20 minutes. Following digestion, single smooth muscle cells were dispersed by gentle trituration with a wide-bore transfer pipette in Ca^2+-free HBSS and the cell suspension was placed on 25 mm glass cover slips. PASMCs were transiently cultured in Ham's-F-12 media supplemented with 0.5% fetal bovine serum and 1% penicillin/streptomycin for 24-48 hrs. before study.
pHi within PASMCs was monitored using the cell permeant pH sensitive dye 2′,7′-bis(carboxyethyl)-5(6)-carboxyflourescein (BCECF-AM). Cells were incubated with BCECF-AM for 60 min at 37° C. under an atmosphere of 21% O2-5% CO2. Cells were then washed with Kreb's solution for 15 min at 37° C. to remove extracellular dye and allow complete de-esterification of cytosolic dye. Cells were excited with light at 490 and 440 nm and light emitted from the cells was detected at 530 nm. The ratio of 490 to 440 nm emission was calculated and converted into pH values by performing a calibration curve after each experiment. PASMCs were subjected to a high K^+ buffer containing 10 μM nigericin, which allowed the cell to adopt the pH of the high K^+ buffer. Two high K^+/nigericin buffers were used to set pH to 6.5 or 7.5, pHi was estimated from in situ calibration after each experiment. Cells were perfused with a solution containing (in mM): 105 KCl, 1 MgCl2, 1.5 CaCl2, 10 glucose, 20 HEPES-Tris and 0.01 nigericin to allow pHi to equilibrate to external pH as in Quinn D. A., et al., Am J Respir Cell Mol Biol 5: 586-591 (1991), which is hereby incorporated by reference in its entirety. A two point calibration was created from fluorescence measured as pHi was adjusted with KOH from 6.5 to 7.5. Intracellular H^+ ion concentration ([H^+]i) was determined from pHi using the formula: pHi=−log ([H^+]i).

[3] = test system: PASMCs; test: Basal intracellular Ca2+ concentration in PASMCs (Fura-2); assay type: cell-based, rat; conditions: for basal [Ca^2+]i, Treatment: 100 μM, after 10 min of perfusion; for effect on resting [Ca^2+]i: 10-100 μM; for basal [Ca^2+]i, Baseline: before perfusion with the compound
Procedure: as §1, with “Intrapulmonary” for “The method for obtaining single PASMCs has been described previously in Shimoda L. A., et al., Am J Physiol 274: 842-853 (1998), which is hereby incorporated by reference in its entirety. Intrapulmonary”, “The tissue was enzymatically digested in reduced-Ca^2+ HBSS containing collagenase (type I; 1750 U/ml), papain (9.5 U/ml), bovine serum albumin (2 mg/ml) and dithiothreitol (1 mM) at 37° C. for 20 minutes.” left out
Acute hypoxia increases intracellular [Ca^2+] in pulmonary arterial smooth muscle by enhancing capacitative Ca^2+ entry. […] Ratiometric measurement of fluorescence from the dye was performed on a workstation (Intracellular Imaging Inc, Cincinnati, Ohio) consisting of a Nikon TSE 100 Ellipse inverted microscope with epi-fluorescence attachments. The light beam from a xenon arc lamp was filtered at 340 and 380 nm, and focused onto the PASMCS under examination via a 20× fluorescence objective (Super Fluor 20, Nikon). Light emitted from the cell at 510 nm was returned through the objective and detected by a cooled CCD imaging camera. An electronic shutter (Sutter Instruments) was used to minimize photobleaching of dye. Protocols were executed and data collected on-line with InCyte software (Intracellular Imaging Inc). [Ca^2+]i was estimated from in vitro calibration solutions.

[4] = iv bolus + continuous infusion, hypoxia 2nd h
[5] = iv bolus + continuous infusion, hypoxia 3rd h
[6] = iv bolus + continuous infusion, normoxia 1st h
[7] = po 5 mg/kg 12 and 1 hr before, hypoxia 2nd h
[8] = po 5 mg/kg 12 and 1 hr before, hypoxia 3rd h
[9] = po 5 mg/kg 12 and 1 hr before, normoxia 1st h

SMILES | BEa, arterial base excess [1, 4] [mM] | HCO3a, arterial actual bicarbonate concentration [1, 4] [mM] | PaCO2, arterial carbon dioxide tension [1, 4] [Torr] | PaO2, arterial oxygen tension [1, 4] [Torr] | VE, minute ventilation [1, 4] [L/min] | BEa, arterial base excess [1, 5] [mM] | HCO3a, arterial actual bicarbonate concentration [1, 5] [mM] | PaCO2, arterial carbon dioxide tension [1, 5] [Torr] | PaO2, arterial oxygen tension [1, 5] [Torr] | VE, minute ventilation [1, 5] [L/min] | BEa, arterial base excess [1, 6] [mM] | HCO3a, arterial actual bicarbonate concentration [1, 6] [mM] | PaCO2, arterial carbon dioxide tension [1, 6] | PaO2, arterial oxygen tension [1, 6] | VE, minute ventilation [1, 6] [L/min] | effect on basal pHi ([2]; 100 μM) | basal pHi, Baseline [2] | basal [Ca^2+]i, Treatment [3] | effect on resting [Ca^2+]i [3] | basal [Ca^2+]i, Baseline [3] [nM] | further results
NS(=O)(=O)c1nnc(NS(=O)(=O)c2ccccc2)s1 [BZ, benzolamide] | -4.4 ± 0.4 | 18.4 ± 0.3 | 30 ± 1 | 37 ± 1 | 4.4 ± 0.5 | -4.9 ± 0.4 | 17.7 ± 0.4 | 29 ± 1 | 38 ± 1 | 5.1 ± 0.6 | -4.4 ± 0.4 | 20.1 ± 0.3 | 37 ± 1^ Torr | 96 ± 1^ Torr | 3.0 ± 0.2 | significant decrease | 7.31 ± 0.02 | 120.7 ± 7.7 nM | neither EZ nor BZ altered | 113.4 ± 7.4 | pHa, arterial pH [1, 4]: 7.41 ± 0.01; pHa, arterial pH [1, 5]: 7.42 ± 0.01; pHa, arterial pH [1, 6]: 7.35 ± 0.01; basal pHi, Treatment ([2]; 100 μM): 7.25 ± 0.03
CC(=O)Nc1nnc(S(N)(=O)=O)s1 [AZ, acetazolamide] | -4.0 ± 0.3 | 19.0 ± 0.4 | 30 ± 1 | 37 ± 1 | 5.8 ± 0.6 | -5.6 ± 0.5 | 17.5 ± 0.5 | 28 ± 1 | 39 ± 1 | 7.0 ± 0.6 | -3.1 ± 0.5 | 20.9 ± 0.6 | 34 ± 1 Torr | 106 ± 3 Torr | 4.0 ± 0.3 | small decrease | 7.26±0.02 | 150.0 ± 9.6 nM and 155.0 ± 9.6 nM | no effect | 159.6 ± 10.8 | BEa, arterial base excess [1, 7]: -5.8 ± 0.4 mM; HCO3a, arterial actual bicarbonate concentration [1, 7]: 17.6 ± 0.6 mM; PaCO2, arterial carbon dioxide tension [1, 7]: 29 ± 1 Torr; PaO2, arterial oxygen tension [1, 7]: 37 ± 1 Torr; VE, minute ventilation [1, 7]: 5.9 ± 0.2 L/min; BEa, arterial base excess [1, 8]: -6.5 ± 0.4 mM; PaCO2, arterial carbon dioxide tension [1, 8]: 27 ± 1 Torr; PaO2, arterial oxygen tension [1, 8]: 38 ± 1 Torr; VE, minute ventilation [1, 8]: 6.1 ± 0.2 L/min; BEa, arterial base excess [1, 9]: -7.2 ± 0.6 mM; HCO3a, arterial actual bicarbonate concentration [1, 9]: 17.1 ± 0.7 mM; PaCO2, arterial carbon dioxide tension [1, 9]: 32 ± 1 Torr; PaO2, arterial oxygen tension [1, 9]: 108 ± 2 Torr; VE, minute ventilation [1, 9]: 4.5 ± 0.3 L/min; pHa, arterial pH [1, 9]: 7.34 ± 0.01; effect of hypoxia on pHi in treated cells ([2]; 100 μM, 4% O2): no effect; pHi after hypoxia in pretreated PASMCs ([2]; 100 μM, 4% O2): 7.24±0.03
CCOc1ccc2nc(S(N)(=O)=O)sc2c1 [EZ, ethoxzolamide] | -6.2 ± 1.2 | 18.1 ± 1.3 | 26 ± 1 | 36 ± 1 | 6.4 ± 0.7 | -6.7 ± 1.1 | 17.6 ± 1.3 | 24 ± 1 | 38 ± 1 | 6.9 ± 0.9 | -5.3 ± 0.5 | 19.6 ± 0.6 | 33 ± 1 Torr | 105 ± 1 Torr | 4.0 ± 0.2 | significant decrease | 7.28 ± 0.04 | 122.5 ± 6.3 nM | neither EZ nor BZ altered | 125.5 ± 7.1 | pHa, arterial pH [1, 4]: 7.41 ± 0.01; pHa, arterial pH [1, 5]: 7.42 ± 0.01; pHa, arterial pH [1, 6]: 7.37 ± 0.01; basal pHi, Treatment ([2]; 100 μM): 7.19 ± 0.04
